Our source for the MFC, Activity and MIC values is ChEMBL document CHEMBL4732126, “Design, synthesis, and biodistribution studies of new analogues of marine alkaloids: Potent in vitro and in vivo fungicidal agents against Candida spp” (Eur J Med Chem, 2021).

Converted amounts (≈) assume the structure as drawn. The source made the active and inactive calls. The calls are words filed in the database; no cut-off is given here.

The subject of experiment [1] is Candida albicans. As to the kind of experiment: Fungicidal activity against Candida albicans ATCC 18804 assessed as fungal killing incubated for 48 hrs followed by plating on SD agar plate. Format: functional. The following applies: read-out: MFC99.9.
Experiment [2] deals with Pichia kudriavzevii. Briefly: Fungicidal activity against Candida krusei ATCC 34135 assessed as fungal killing incubated for 48 hrs followed by plating on SD agar plate. Format: functional. The following applies: read-out: MFC99.9.
The test system of experiment [3] is Candida albicans. As to the kind of experiment: Fungicidal activity against Candida albicans isolate 4 assessed as fungal killing incubated for 48 hrs followed by plating on SD agar plate. Format: functional. The following applies: read-out: MFC99.9.
For experiment [4], the system named is Candida albicans. Briefly: Antifungal activity against Candida albicans ATCC 10231 assessed as inhibition of yeast to hypha morphological transition at 125 ug/ml measured upto 72 hrs by microscopic analysis. Format: functional, organism-based. The settings on record: dose 125.0 µg/ml, time hrs <=72.
Experiment [5] relates to Candida albicans. Briefly: Fungicidal activity against Candida albicans isolate 7 assessed as fungal killing incubated for 48 hrs followed by plating on SD agar plate. Format: functional. The following applies: read-out: MFC99.9.
Experiment [6] has as its system Candida albicans. As to the kind of experiment: Antifungal activity against Candida albicans isolate 13 assessed as reduction in fungal growth incubated for 48 hrs by broth microdilution method. The class given is functional.
The subject of experiment [7] is Candida albicans. As to the kind of experiment: Fungicidal activity against Candida albicans isolate 2 assessed as fungal killing incubated for 48 hrs followed by plating on SD agar plate. The class given is functional. The following applies: read-out: MFC99.9.
Experiment [8] has as its system Nakaseomyces glabratus. As to the kind of experiment: Fungicidal activity against Candida glabrata ATCC 2001 assessed as fungal killing incubated for 48 hrs followed by plating on SD agar plate. Format: functional. The settings on record: read-out: MFC99.9.
For experiment [9], the system named is Candida albicans. As to the kind of experiment: Antifungal activity against Candida albicans isolate 12 assessed as reduction in fungal growth incubated for 48 hrs by broth microdilution method. The class given is functional. For orientation: Broth dilution looks for growth in wells or tubes with falling amounts of substance.
For experiment [10], the system named is Candida albicans. Briefly: Fungicidal activity against Candida albicans ATCC 10231 assessed as reduction in fungal load at 125 ug/ml incubated for 48 hrs followed by inoculation on SD agar plate for 48 hrs by time-kill assay. The class given is functional, organism-based. The settings on record: dose 125.0 µg/ml, time 96.0 hrs.
The test system of experiment [11] is Pichia kudriavzevii. Briefly: Antifungal activity against Candida krusei ATCC 34135 assessed as reduction in fungal growth incubated for 48 hrs by broth microdilution method. Format: functional.
Experiment [12] deals with Candida albicans. Briefly: Antifungal activity against Candida albicans isolate 1 assessed as reduction in fungal growth incubated for 48 hrs by broth microdilution method. Format: functional.
The test system of experiment [13] is Candida albicans. As to the kind of experiment: Antifungal activity against Candida albicans ATCC 18804 assessed as reduction in fungal growth incubated for 48 hrs by broth microdilution method. Format: functional.
The subject of experiment [14] is Candida albicans. Briefly: Antifungal activity against Candida albicans isolate 8 assessed as reduction in fungal growth incubated for 48 hrs by broth microdilution method. The class given is functional.
Experiment [15] relates to Candida albicans. Briefly: Antifungal activity against Candida albicans isolate 7 assessed as reduction in fungal growth incubated for 48 hrs by broth microdilution method. Format: functional.
Experiment [16] deals with Candida albicans. Briefly: Antifungal activity against Candida albicans isolate 2 assessed as reduction in fungal growth incubated for 48 hrs by broth microdilution method. The class given is functional.
The test system of experiment [17] is Candida albicans. Briefly: Antifungal activity against Candida albicans isolate 11 assessed as reduction in fungal growth incubated for 48 hrs by broth microdilution method. The class given is functional.
The subject of experiment [18] is Candida albicans. Briefly: Fungicidal activity against Candida albicans isolate 12 assessed as fungal killing incubated for 48 hrs followed by plating on SD agar plate. Format: functional. The following applies: read-out: MFC99.9.
The test system of experiment [19] is Candida tropicalis. Briefly: Antifungal activity against Candida tropicalis ATCC 28707 assessed as reduction in fungal growth incubated for 48 hrs by broth microdilution method. Format: functional.
Experiment [20] relates to Candida albicans. As to the kind of experiment: Fungicidal activity against Candida albicans isolate 8 assessed as fungal killing incubated for 48 hrs followed by plating on SD agar plate. Format: functional. The settings on record: read-out: MFC99.9.
The subject of experiment [21] is Candida albicans. Briefly: Antifungal activity against Candida albicans isolate 4 assessed as reduction in fungal growth incubated for 48 hrs by broth microdilution method. The class given is functional.
The subject of experiment [22] is Candida albicans. As to the kind of experiment: Fungicidal activity against Candida albicans isolate 9 assessed as fungal killing incubated for 48 hrs followed by plating on SD agar plate. Format: functional. The following applies: read-out: MFC99.9.
Experiment [23] concerns Candida albicans. Briefly: Antifungal activity against Candida albicans isolate 6 assessed as reduction in fungal growth incubated for 48 hrs by broth microdilution method. Format: functional.
The subject of experiment [24] is Candida albicans. Briefly: Fungicidal activity against Candida albicans isolate 6 assessed as fungal killing incubated for 48 hrs followed by plating on SD agar plate. The class given is functional. The following applies: read-out: MFC99.9.
The subject of experiment [25] is Candida albicans. Briefly: Antifungal activity against Candida albicans isolate 3 assessed as reduction in fungal growth incubated for 48 hrs by broth microdilution method. The class given is functional.
The test system of experiment [26] is Candida albicans. As to the kind of experiment: Antifungal activity against Candida albicans ATCC 10231 assessed as reduction in fungal growth incubated for 48 hrs by broth microdilution method. Format: functional.
The subject of experiment [27] is Candida albicans. Briefly: Fungicidal activity against Candida albicans isolate 11 assessed as fungal killing incubated for 48 hrs followed by plating on SD agar plate. The class given is functional. The settings on record: read-out: MFC99.9.
Experiment [28] relates to Candida albicans. As to the kind of experiment: Antifungal activity against Candida albicans isolate 5 assessed as reduction in fungal growth incubated for 48 hrs by broth microdilution method. The class given is functional.
Experiment [29] concerns Nakaseomyces glabratus. As to the kind of experiment: Antifungal activity against Candida glabrata ATCC 2001 assessed as reduction in fungal growth incubated for 48 hrs by broth microdilution method. Format: functional.
The test system of experiment [30] is Candida tropicalis. Briefly: Fungicidal activity against Candida tropicalis ATCC 28707 assessed as fungal killing incubated for 48 hrs followed by plating on SD agar plate. Format: functional. The following applies: read-out: MFC99.9.
Experiment [31] relates to Candida albicans. As to the kind of experiment: Antifungal activity against Candida albicans isolate 9 assessed as reduction in fungal growth incubated for 48 hrs by broth microdilution method. Format: functional.
In experiment [32] the test system is Candida albicans. Briefly: Fungicidal activity against Candida albicans ATCC 10231 assessed as fungal killing incubated for 48 hrs followed by plating on SD agar plate. The class given is functional. The following applies: read-out: MFC99.9.
For experiment [33], the system named is Candida albicans. As to the kind of experiment: Fungicidal activity against Candida albicans isolate 13 assessed as fungal killing incubated for 48 hrs followed by plating on SD agar plate. The class given is functional. The settings on record: read-out: MFC99.9.
Experiment [34] deals with Candida albicans. Briefly: Fungicidal activity against Candida albicans isolate 10 assessed as fungal killing incubated for 48 hrs followed by plating on SD agar plate. Format: functional. The following applies: read-out: MFC99.9.
In experiment [35] the test system is Candida albicans. Briefly: Antifungal activity against Candida albicans isolate 10 assessed as reduction in fungal growth incubated for 48 hrs by broth microdilution method. Format: functional.
Experiment [36] relates to Candida tropicalis. Briefly: Antifungal activity against Candida tropicalis ATCC 28707 assessed as reduction in fungal growth incubated for 48 hrs in presence of sorbitol by broth microdilution method. The class given is functional.
The test system of experiment [37] is Pichia kudriavzevii. As to the kind of experiment: Antifungal activity against Candida krusei ATCC 34135 assessed as reduction in fungal growth incubated for 48 hrs in presence of sorbitol by broth microdilution method. Format: functional.
Experiment [38] deals with Candida albicans. As to the kind of experiment: Antifungal activity against Candida albicans ATCC 10231 assessed as reduction in fungal growth incubated for 48 hrs in presence of sorbitol by broth microdilution method. Format: functional.
Experiment [39] deals with Nakaseomyces glabratus. Briefly: Antifungal activity against Candida glabrata ATCC 2001 assessed as reduction in fungal growth incubated for 48 hrs in presence of sorbitol by broth microdilution method. The class given is functional.

The MIC is the least concentration at which growth counts as inhibited.

As for `CC(=O)N1CCN(c2ccc(OCC3COC(Cn4ccnc4)(c4ccc(Cl)cc4Cl)O3)cc2)CC1` (stereo not drawn) [KETOCONAZOLE], the MFC in experiment [1] is 125 µg/mL (≈ 235 µM); in [2] it was 7.8 µg/mL (≈ 14.7 µM); in experiment [3], 125 µg/mL (≈ 235 µM); in experiment [5], 7.8 µg/mL (≈ 14.7 µM); in experiment [7], more than 500 µg/mL; in experiment [8], more than 500 µg/mL. Also, the MFC in experiment [18] is 500 µg/mL (≈ 941 µM); in experiment [20], 7.8 µg/mL (≈ 14.7 µM); in experiment [22], 250 µg/mL (≈ 470 µM); in [24], 3.9 µg/mL (≈ 7.34 µM); in experiment [27] it was 125 µg/mL (≈ 235 µM); in experiment [30], 62.5 µg/mL (≈ 118 µM). The MFC in experiment [32] worked out at 125 µg/mL (≈ 235 µM); in experiment [33], 250 µg/mL (≈ 470 µM); in experiment [34] it was 62.5 µg/mL (≈ 118 µM). For the same compound, the outcome in experiment [4] was Active. For the same compound, the MIC in experiment [6] is 15.6 µg/mL (≈ 29.4 µM); in experiment [9], 15.6 µg/mL (≈ 29.4 µM); in [11], 7.8 µg/mL (≈ 14.7 µM); in experiment [12], more than 500 µg/mL; in experiment [13], 31.2 µg/mL (≈ 58.8 µM); in [14], 3.9 µg/mL (≈ 7.34 µM). In addition, the MIC in [15] worked out at 1.95 µg/mL (≈ 3.67 µM); in experiment [16], 62.3 µg/mL (≈ 117 µM); in [17], 31.2 µg/mL (≈ 58.8 µM); in experiment [19], 31.2 µg/mL (≈ 58.8 µM); in experiment [21], 31.2 µg/mL (≈ 58.8 µM); in [23], 0.97 µg/mL (≈ 1.83 µM). In addition, the minimum inhibitory concentration (MIC) in experiment [25] was more than 500 µg/mL; in experiment [26], 31.2 µg/mL (≈ 58.8 µM); in experiment [28] it was more than 500 µg/mL; in experiment [29], 125 µg/mL (≈ 235 µM); in experiment [31], 31.2 µg/mL (≈ 58.8 µM); in [35], 7.8 µg/mL (≈ 14.7 µM). Moreover, the result in [10] was inactive.

Take `CC[C@H](C)C[C@H](C)CCCCCCCCC(=O)N[C@H]1C[C@@H](O)[C@@H](NCCN)NC(=O)[C@@H]2[C@@H](O)CCN2C(=O)[C@H]([C@H](O)CCN)NC(=O)[C@H]([C@H](O)[C@@H](O)c2ccc(O)cc2)NC(=O)[C@@H]2C[C@@H](O)CN2C(=O)[C@H]([C@@H](C)O)NC1=O` [CASPOFUNGIN]: the MIC is 0.25 µg/mL in experiment [36]; 0.25 µg/mL in experiment [37]; 0.0625 µg/mL (≈ 0.0572 µM) in [11]; 0.0625 µg/mL (≈ 0.0572 µM) in [19]; 4 µg/mL (≈ 3.66 µM) in experiment [26]; 15.6 µg/mL in experiment [38]. Also, the figures for the MIC in [29] and in experiment [39] were 0.5 µg/mL (≈ 0.457 µM) and 1 µg/mL, respectively.
